Test results: US9388147B2 (Receptos, Inc., priority 2009, dated 2016)
Counter-ions that a name gives are not always drawn. Like-named read-outs stand apart in the source and are kept apart here.

What was measured:
S1P1/EDG1 = S1P1/EDG1 (Homo sapiens, UniProt P21453); assay: S1P1 CRE-bla CHOK1 reporter assay, inhibition of Forskolin induced cAMP; format: cell-based
Summary of the method: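 Read-out is a FRET β-lactamase substrate (2 h, room temperature) after 4 h, 37 °C compound treatment under 2 μM Forskolin in stable S1P1-transfected CRE-bla CHO-K1 cells. Ten-point curves; non-linear regression gives EC50 for inhibition of Forskolin-stimulated cAMP.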

[1] = Determination of absolute oral bioavailability in rats; format: in vivo, Sprague-Dawley rat; settings: non-fasted female Sprague-Dawley rats, oral solution 0.3 mg/kg (85), 2 mg/kg (49, 50), iv 0.3 mg/kg (49, 50), 0.8 mg/kg racemic 85/86
Experimental: All pharmacokinetic studies were conducted in non-fasted female Sprague-Dawely rats (Simonsen Laboratories or Harlan Laboratories). Rats were housed in an ALAAC accredited facility and the research was approved by the facilities Institutional Animal Care and Use Committee (IACUC). The animals were acclimated to the laboratory for at least 48 h prior to initiation of experiments.
Compounds were formulated in 5% DMSO/5% Tween20 and 90% purified water (intravenous infusion) or 5% DMSO/5% Tween20 and 90% 0.1N HCL (oral gavage). The concentration of the dosing solutions was verified by HPLC-UV. For intravenous dosing, compounds were administered by an infusion pump into the jugular vein over one minute to manually restrained animals (n=4 rats/compound). The intravenous doses were 0.8 for a 1:1 mixture (racemic) of 85 and 86, and 0.3 and 0.3 mg/kg for compounds 49 and 50, respectively. Oral dosing was by gavage using a standard stainless steel gavage needle (n=2-4 rats/compound). The oral solution doses were 0.3, 2 and 2 mg/kg for compounds 85, 49 and 50, respectively. For both routes of administration, blood was collected at eight time-points after dosing with the final sample drawn 24 h post dose. Aliquots of the blood samples were transferred to polypropylene 96-well plate and frozen at −20° C. until analysis. […]
Concentrations in the rat pharmacokinetic samples were determined using a standardized HPLC-LC/MS/MS method relative to the eight point standard curve. […] Collision energies used to generate daughter ions ranged between 29 and 39 V. Peak area ratios obtained from MRM of the mass transitions specific for each compound were used for quantification. The limit of quantification of the method was typically 5 nM. Data were collected and analyzed using Analyst software version 1.4.2.
Blood concentration versus time data were analyzed using non-compartmental methods (WinNonlin version 5.2; model 200 for oral dosing and model 202 for intravenous infusion). Absolute oral bioavailability (%) was calculated using the following expression: (Oral AUC×IV Dose)/(IV AUC×Oral Dose)×100. […]

[2] = tested on: CD4 or CD8 positive T cells; assay: Lymphopenia in mice; format: in vivo; settings: female C57BL6 mice, 1 mg/kg oral gavage, area under the effect curve over 24 h
Experimental: In mice: Female C57BL6 mice (Simonsen Laboratories, Gilroy Calif.) were housed in an ALAAC accredited facility and the research was approved by the facilities Institutional Animal Care and Use Committee (IACUC). The animals were acclimated to the laboratory for at least 5 days prior to initiation of experiments. Mice (n=3/compound/time-point) were dosed by oral gavage with 1 mg/kg compound formulated in a vehicle consisting of 5% DMSO/5% Tween 20 and 90% 0.1N HCl. Control mice were dosed PO with the vehicle. Terminal whole blood samples were collected from isoflurane anesthetized mice by cardiac puncture into EDTA. Whole blood was incubated with rat anti-mouse CD16/CD32 (Mouse BD Fc Block, #553141), PE-Rat anti-mouse CD45R/B220 (BD #553089), APC-Cy7-Rat anti-mouse CD8a (BD #557654), and Alexa Fluor647-Rat anti-mouse CD4 (BD #557681) for 30 min on ice. Red blood cells were lysed using BD Pharm Lyse Lysing buffer (#555899) and white blood cells were analyzed by FACS. Lymphopenia was expressed as the % of white blood cells that were CD4 or CD8 positive T cells. The overall lymphopenia response over 24 h was estimated by calculating the area under the effect curve (AUEC) using the linear trapezoidal rule.

[3] = S1P1 CRE-bla CHOK1, with Forskolin, read-out: S1P1 agonist value (EC50)
[4] = agonist activity range, S1P1 CRE-bla CHOK1, 2 μM Forskolin, read-out: S1P1 ACTIVITY

Chain of S1P1/EDG1 (P21453 whole entry): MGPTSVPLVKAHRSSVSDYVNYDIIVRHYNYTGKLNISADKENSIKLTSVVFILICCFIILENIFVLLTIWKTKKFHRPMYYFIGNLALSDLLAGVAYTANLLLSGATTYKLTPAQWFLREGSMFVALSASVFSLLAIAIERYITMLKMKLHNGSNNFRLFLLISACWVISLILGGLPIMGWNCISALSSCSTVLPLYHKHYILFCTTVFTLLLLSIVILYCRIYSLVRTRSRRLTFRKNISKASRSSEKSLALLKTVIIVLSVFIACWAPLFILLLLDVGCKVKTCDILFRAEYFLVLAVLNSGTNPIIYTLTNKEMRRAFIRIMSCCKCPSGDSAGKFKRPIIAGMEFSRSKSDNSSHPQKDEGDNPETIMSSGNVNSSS

Molecule `CC(C)Oc1ccc(-c2nc(-c3cccc4c3CC[C@H]4N)no2)cc1C#N` [Compound 49, (R)-5-(3-(1-amino-2,3-dihydro-1H-inden-4-yl)-1,2,4-oxadiazol-5-yl)-2-isopropoxy-benzonitrile hydrochloride] has an EC50 (S1P1/EDG1; [3]) of 0.17 nM, an EC50 (S1P1/EDG1; [4]) of 0.05 to 0.5 nM and a bioavailability ([1]; rat, whole blood) of 93%. For the same molecule, the “Mouse Lymphopenia (AUEC)” value [2] was 1762.
With `CC(C)Oc1ccc(-c2nc(-c3cccc4c3CC[C@@H]4N)no2)cc1C#N` [Compound 50, (S)-5-(3-(1-amino-2,3-dihydro-1H-inden-4-yl)-1,2,4-oxadiazol-5-yl)-2-isopropoxy-benzonitrile] the EC50 (S1P1/EDG1; [3]) was 0.19 nM, the EC50 (S1P1/EDG1; [4]) was 0.05 to 0.5 nM and the “Rat - Oral bioavailability Solution” value [1] was 91%. For the same molecule, the “Mouse Lymphopenia (AUEC)” value [2] was 1632.
With `CC(C)Oc1ccc(-c2nc(-c3cccc4c3CC[C@H]4NCCO)no2)cc1C#N` [Compound 85, (R)-5-(3-(1-(2-hydroxyethylamino)-2,3-dihydro-1H-inden-4-yl)-1,2,4-oxadiazol-5-yl)-2-isopropoxybenzonitrile] the “Rat - Oral bioavailability Solution” value [1] was 69% and the “Mouse Lymphopenia (AUEC)” value [2] was 1425.
In the case of `CC(C)Oc1ccc(-c2nc(-c3cccc4c3CC[C@H]4NCC(=O)N(C)C)no2)cc1C#N` [Compound 90, (R)-2-(4-(5-(3-cyano-4-isopropoxyphenyl)-1,2,4-oxadiazol-3-yl)-2,3-dihydro-1H-inden-1-ylamino)-N,N-dimethylacetamide hydrochloride], the EC50 (S1P1/EDG1; [3]) is reported as 0.13 nM, the EC50 (S1P1/EDG1; [4]) is reported as 0.05 to 0.5 nM and the “Mouse Lymphopenia (AUEC)” value [2] is reported as 1486.
With `CC(C)Oc1ccc(-c2nc(-c3cccc4c3CC[C@@H]4NCC(=O)N(C)C)no2)cc1C#N` [Compound 91, (S)-2-(4-(5-(3-cyano-4-isopropoxyphenyl)-1,2,4-oxadiazol-3-yl)-2,3-dihydro-1H-inden-1-ylamino)-N,N-dimethylacetamide] the EC50 (S1P1/EDG1; [3]) was 0.09 nM, the EC50 (S1P1/EDG1; [4]) was 0.05 to 0.5 nM and the “Mouse Lymphopenia (AUEC)” value [2] was 1408.
